Measurements reported in patent US20130189255A1, “FUSIONS AND CONJUGATES OF INSULINOTROPIC AGENTS” (GLAXO GROUP LIMITED, priority 2008, published 2013).
pKd: −log10 of the molar value. Values joined by “and” are separate entries in the source; they are usually repeats but may differ in a detail not shown here. Equal entries are not always repeated. Where two headings read alike, the source gives them in different places.

Experiments:
[1] = tested on: cynomolgus monkey; test: PD in cynomolgus monkey: biscuit consumption; assay type: in vivo, cynomolgus monkey (Macaca fascicularis)
Source text: Protein was extensively QCed (including SDS-PAGE, mass spec, activity assay:GLP-1R-BA, pH check, osmolarity check), filter sterilised and endotoxin removed. Protein with confimed low endotoxin (<0.05 EU/mg protein) was then used for the in vivo study. Six female cynomolgus monkeys (Macaca fascicularis; Charles River Laboratories BRF, Houston, Tex., Primate Products, Miami, Fla. and/or Covance Research Products, Inc., Alice, Tex.) were used in this study. The monkeys were approximately 2 to 9 years old (with a body weight range of approximately 2 to 5 kilograms) at initiation of dosing. The monkeys were housed individually in stainless-steel cages in an environmentally controlled room(s) (64 F to 84 F; 30 to 70% relative humidity) with a 12-hour light/dark cycle. The female monkeys were offered approximately 6 biscuits twice daily of Monkey Diet #5038 (PMI Nutrition International, Richmond, Ind.) and a daily allotment of fresh fruit. […] Dose was at 0.1 mg/Kg. On the days of dosing, the first feeding occurred within approximately 1 hour post dose for each monkey (extended up to 2.5 hours post dose if study-related procedures required animals to be out of their local housing for an extended period of time). The second feeding was no sooner then two hours following the first feeding. For the purpose of environmental enrichment, additional fruit, legume and/or vegetable (e.g., grapes, baby carrots, peanuts) was provided to each monkey at or around the time of viability check or as a method of reward after acclimation or study-related procedures. Filtered tap water (supplied by Aqua Pennsylvania, Inc. and periodically analyzed) was available ad libitum. Plasma samples (approx 2 ml) were collected from the femoral vessel at predose (0 hour) and nominally at 5 minutes (iv group only), 0.5, 4, 8, 24, 48, 96, 144, 192, 288, 336, 504 and 672 hours after dosing. (PK samples from one of the animals in the iv dose group were only collected to 24 h so this animal has been excluded from the PK fitting). Analysis of samples was by mass spectrometry, and fitting of the data was using WinNonLin fitting software. PK parameters were as follows for iv administration (n=2): T1/2 67 h, MRT 46 h, Vz 327 ml/Kg and Cl 3.3 ml/hr/Kg; and for sc administration (n=3): T1/2 68 h, MRT 98 h, Vz 306 ml/Kg and Cl 3.1 ml/hr/Kg. Bioavailability was calculated as 99%. A PK study was conducted in cynomolgus monkey as described above. The principal aim of this study was to determine the pharmacokinetic parameters for DAT0115 in cynomolgus monkey (as described in the previous example), but a secondary aim was to obtain an indication of the efficacy of the DAT0115 compound in the monkeys (without sufficient power in the study for statistical significance). To achieve this secondary aim, biscuit consumption by the monkeys was monitored during the course of the study.

[2] = rat, in vivo
Procedure: This was followed by ion exchange chromotography on a Resource S column using a 0-1M salt gradient in 20 mM acetate pH5.0. Fractions containing the desired protein were then combined and buffer exchanged into 100 mM NaCl, 20 mM citrate pH6.2. Protein was filter sterilised, buffer exchanged and Qced prior to use in vivo.
Calculated plasma levels were then used to fit pharmacokinetic parameters using WinNonLin software. Half life after subcutaneous and intravenous administration and bioavailability is outlined in the table 8 below. It was concluded from the results that all three compounds show desirable pharmacokinetic parameters in rat.

[3] = molecular target: RSA (Rattus norvegicus, UniProt P02770); test: Surface plasmon resonance (Biacore, streptavidin chip with biotinylated serum albumin), RSA; assay type: binding; settings: Biacore SA chip, HBS-EP buffer; read-out: Affinity (KD) to RSA
Chain of RSA (P02770 25-608): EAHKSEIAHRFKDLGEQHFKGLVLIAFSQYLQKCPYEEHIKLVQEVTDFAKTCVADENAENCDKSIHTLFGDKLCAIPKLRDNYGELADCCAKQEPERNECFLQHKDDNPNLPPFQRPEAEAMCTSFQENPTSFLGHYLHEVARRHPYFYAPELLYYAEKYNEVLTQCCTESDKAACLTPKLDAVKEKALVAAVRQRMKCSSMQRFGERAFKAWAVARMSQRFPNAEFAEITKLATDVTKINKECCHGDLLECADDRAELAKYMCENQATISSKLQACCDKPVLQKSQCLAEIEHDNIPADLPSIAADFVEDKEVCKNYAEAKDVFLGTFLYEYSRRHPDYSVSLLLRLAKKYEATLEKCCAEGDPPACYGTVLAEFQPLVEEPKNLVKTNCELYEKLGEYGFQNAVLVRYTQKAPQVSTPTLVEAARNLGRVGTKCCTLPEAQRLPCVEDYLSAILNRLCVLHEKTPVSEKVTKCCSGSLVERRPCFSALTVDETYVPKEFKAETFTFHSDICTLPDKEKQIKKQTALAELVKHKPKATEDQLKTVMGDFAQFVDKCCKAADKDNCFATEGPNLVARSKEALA
Procedure: The analysis was performed using a streptavidin chip (SA) coated with biotinylated serum albumin. 200-1000 resonance units (RUs) of each serum albumin was immobilised on the chip. Flow cell 1 was uncoated, flow cell 2 was coated with HSA, flow cell 3 was coated with RSA and flow cell 4 was coated with CSA. A range of concentrations of fusion was prepared (in the range 15.6 nM to 2 μM by dilution into BIACORE HBS-EP buffer (0.01M HEPES, pH7.4, 0.15M NaCl, 3 mM EDTA, 0.005% surfactant P20) and flowed across the BIACORE chip.
Affinity (KD) was calculated from the BIACORE traces by fitting on-rate and off-rate curves to traces generated by concentrations of dAb in the region of the KD.

[4] = mouse, in vivo, 1 mg/kg
Procedure: This was followed by ion exchange chromotography on a Resource S column using a 0-1M salt gradient in 20 mM acetate pH5.0. Fractions containing the desired protein were then combined and buffer exchanged into 100 mM NaCl, 20 mM citrate pH6.2. Protein was filter sterilised, buffer exchanged and endotoxin removed ant tested prior to use in vivo. […] At predose, 0.25, 0.5, 1, 4, 7, 12, 24, 36, 48 and 60 hours after dosing for the iv doses and predose, 0.5, 1, 4, 7, 12, 24, 36, 48 and 60 hours after dosing for the sc doses blood samples were collected by terminal bleed and plasma prepared. Plasma samples were frozen and later defrosted for analysis of DAT0115, DAT0116 or DAT0117 levels as appropriate by solid phase extraction and LC/MS/MS to detect the presence of a fragment of the protein (from the exendin-4 section of the protein). Calculated plasma levels were then used to fit pharmacokinetic parameters using WinNonLin software. Half life after subcutaneous and intravenous administration and bioavailability is outlined in the table below. It was concluded from the results (see table 7 below) that all three compounds show desirable pharmacokinetic parameters in a mouse model of type II diabetes.

In the case of “Exendin 4 (G4S linker)3 DOM7h-14 dAb fusion [DAT0115]”, the Biscuits consumed daily ([1]; 0.1 mg/Kg (iv), Day 1 (dosing day), individual monkey) was 0 (2×) and 6, the Biscuits consumed daily ([1]; 0.1 mg/Kg (iv), Day 2, individual monkey) was 0 and 3 and 1 and the Biscuits consumed daily ([1]; 0.1 mg/Kg (iv), Day 3, individual monkey) was 0 (2×) and 9. For the same substance, the Biscuits consumed daily ([1]; 0.1 mg/Kg (iv), Day 4, individual monkey) was 0 and 12 and 4, the Biscuits consumed daily ([1]; 0.1 mg/Kg (iv), Day 5, individual monkey) was 1 and 12 and 6 and the Biscuits consumed daily ([1]; 0.1 mg/Kg (iv), Day 6, individual monkey) was 6 and 12 and 10. For the same substance, the Biscuits consumed daily ([1]; 0.1 mg/Kg (iv), Day 7, individual monkey) was 6 and 12 and 11, the Biscuits consumed daily ([1]; 0.1 mg/Kg (iv), Day −1 (pre-dose), individual monkey) was 12 and the Biscuits consumed daily ([1]; 0.1 mg/Kg (iv), Day −2 (pre-dose), individual monkey) was 12. For the same substance, the Biscuits consumed daily ([1]; 0.1 mg/Kg (sc), Day 1 (dosing day), individual monkey) was 5 and 12 and 11, the Biscuits consumed daily ([1]; 0.1 mg/Kg (sc), Day 2, individual monkey) was 0 (2×) and 12 and the Biscuits consumed daily ([1]; 0.1 mg/Kg (sc), Day 3, individual monkey) was 4 and 2 and 11. The Biscuits consumed daily ([1]; 0.1 mg/Kg (sc), Day 4, individual monkey) was 11 and 12 (2×), the Biscuits consumed daily ([1]; 0.1 mg/Kg (sc), Day 5, individual monkey) was 7 and 12 and 8 and the Biscuits consumed daily ([1]; 0.1 mg/Kg (sc), Day 6, individual monkey) was 11 and 12 (2×). The Biscuits consumed daily ([1]; 0.1 mg/Kg (sc), Day 7, individual monkey) was 12, the Biscuits consumed daily ([1]; 0.1 mg/Kg (sc), Day −1 (pre-dose), individual monkey) was 12 and the Biscuits consumed daily ([1]; 0.1 mg/Kg (sc), Day −2 (pre-dose), individual monkey) was 12. The “food consumption in the days following dosing” value ([1]; 0.1 mg/Kg iv or sc, all monkeys, not powered for significance) was “trend towards reduction in food consumption”, the Bioavailability [2] was 81% and the “Half-life after intravenous administration” value ([2]; iv, 0.3 mg/kg) was 4.9 h. The pKd [3] was 5.70, the Bioavailability [4] was 65% and the “Half-life after intravenous administration” value ([4]; iv) was 13.8. The “Half-life after subcutaneous administration” value ([4]; sc) was 18.6.
